This note sets out measurements from article PMC5371667, “Targeting Bile Acid Receptors: Discovery of a Potent and Selective Farnesoid X Receptor Agonist as a New Lead in the Pharmacological Approach to Liver Diseases” (Frontiers in Pharmacology, 2017).

The target in data set [1] is T1, hFXR (Homo sapiens, UniProt Q96RI1).
T1 construct: expressed in transfected cells; host or cells: HepG2
T1 sequence (Q96RI1 1-486): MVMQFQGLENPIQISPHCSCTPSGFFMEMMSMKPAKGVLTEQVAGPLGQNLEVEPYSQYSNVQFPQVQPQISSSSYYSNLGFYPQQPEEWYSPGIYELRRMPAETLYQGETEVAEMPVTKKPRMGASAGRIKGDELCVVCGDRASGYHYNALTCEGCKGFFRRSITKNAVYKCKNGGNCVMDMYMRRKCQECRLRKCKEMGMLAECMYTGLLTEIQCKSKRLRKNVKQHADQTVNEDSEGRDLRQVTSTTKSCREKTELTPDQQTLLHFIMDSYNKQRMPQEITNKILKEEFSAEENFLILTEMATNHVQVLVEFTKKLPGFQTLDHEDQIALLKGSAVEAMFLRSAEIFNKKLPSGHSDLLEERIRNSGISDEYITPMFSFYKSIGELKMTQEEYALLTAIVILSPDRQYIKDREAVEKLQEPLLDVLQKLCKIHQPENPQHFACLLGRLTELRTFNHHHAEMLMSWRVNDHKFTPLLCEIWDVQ
T1 sequence (P19793 1-462 partner): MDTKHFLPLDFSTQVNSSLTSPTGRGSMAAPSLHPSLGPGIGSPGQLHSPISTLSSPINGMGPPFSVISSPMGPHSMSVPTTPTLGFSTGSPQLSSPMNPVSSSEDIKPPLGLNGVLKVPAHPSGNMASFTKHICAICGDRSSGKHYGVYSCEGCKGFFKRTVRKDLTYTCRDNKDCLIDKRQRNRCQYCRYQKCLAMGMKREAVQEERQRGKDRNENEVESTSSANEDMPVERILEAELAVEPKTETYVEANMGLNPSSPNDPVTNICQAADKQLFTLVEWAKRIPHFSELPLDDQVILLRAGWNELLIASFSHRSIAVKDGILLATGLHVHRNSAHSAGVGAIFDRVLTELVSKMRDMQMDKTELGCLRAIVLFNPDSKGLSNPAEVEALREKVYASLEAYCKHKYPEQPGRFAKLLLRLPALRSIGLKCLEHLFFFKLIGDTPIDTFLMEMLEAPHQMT
As to the kind of experiment: FXR transactivation on HepG2 cells (luciferase reporter). It counts as cell-based. The method, then:
HepG2 (HB, 8065 from ATCC), an immortalized human epatocarcinoma cell line, was cultured and maintained at 37°C and 5% CO2 in E-MEM additioned with 10% FBS, 1% glutamine, and 1% penicillin/streptomycin. For FXR mediated transactivation, HepG2 cells were plated at 5 × 10^4 cells/well in a 24 well plate. Cells were transfected with 200 ng of the reporter vector p(hsp27)-TK-LUC containing a FXR response element (IR1) cloned from the promoter of heat shock protein 27 (hsp27), 100 ng of pSG5-FXR, 100 ng of pSG5-RXR, and 100 ng of pGL4.70 (Promega), a vector encoding the human Renilla gene. For GPBAR1 mediated transactivation, HepG2 cells were plated at 5 × 10^4 cells/well in a 24 well-plate and transfected with 200 ng of pGL4.29 (Promega), a reporter vector containing a cAMP response element (CRE) that drives the transcription of the luciferase reporter gene luc2P, with 100 ng of pCMVSPORT6-human GPBAR1, and with 100 ng of pGL4.70 Renilla. […]. TLCA (10 μM) was used as a positive control for GPBAR1 activity.
HepG2 cells were transfected as described above and then treated with increasing concentrations of compounds. At 18 h post stimulations, cellular lysates were assayed for luciferase and Renilla activities using the Dual-Luciferase Reporter assay system (E1980, Promega). Luminescence was measured using Glomax 20/20 luminometer (Promega). Luciferase activities were normalized with Renilla activities.

The target in data set [2] is T2, LXRα (Homo sapiens, UniProt Q13133).
T2 construct: expressed in transfected cells; host or cells: HepG2
T2 sequence (Q13133 209-447 limits assumed): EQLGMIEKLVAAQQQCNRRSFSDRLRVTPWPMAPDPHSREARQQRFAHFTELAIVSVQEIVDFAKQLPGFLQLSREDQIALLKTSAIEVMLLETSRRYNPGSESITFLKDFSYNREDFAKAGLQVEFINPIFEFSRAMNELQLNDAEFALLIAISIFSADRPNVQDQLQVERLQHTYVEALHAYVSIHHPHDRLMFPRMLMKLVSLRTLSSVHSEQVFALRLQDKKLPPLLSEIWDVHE
Kind of data set: LXRα transactivation on HepG2 cells (GAL4 LBD reporter). It counts as cell-based. As to conditions: 10 μM. The protocol: (§1) To evaluate LXRα and LXRβ mediated transactivation, HepG2 cells were transfected with 200 ng of the reporter vector p(UAS)5XTKLuc, 100 ng of a vector containing the ligand binding domain of LXRα or LXRβ cloned upstream of the GAL4-DNA binding domain (i.e., pSG5-LXRαLBD-GAL4DBD or pSG5-LXRβLBD-GAL4DBD) and 100 of pGL4.70 Renilla. At 24 h post-transfection, cells were stimulated 18 h with 10 μM compound 2 and GW3965 (GW, 10 μM) was used as positive control. To investigate the PPARα and PPARγ mediated transactivation, HepG2 cells were transiently transfected with 200 ng reporter vector p(UAS)9XTKLuc, 100 ng of a vector containing the ligand binding domain of PPARα or PPARγ cloned upstream of the GAL4-DNA binding domain (i.e., pSG5- PPARαLBD-GAL4DBD or pSG5- PPARγLBD-GAL4DBD) and 100 of pGL4.70 Renilla. For PPARα transactivation, cells were stimulated with 10 μM compound 2 and gemfibrozil (GEM, 10 μM) was used as positive control. For PPARγ transactivation, cells were stimulated with 10 μM compound 2 and rosiglitazone (ROSI, 100 nM) was used as a positive control. Luciferase activities were assayed and normalized with Renilla activities.

Data set [3] has as its target T3, LXRβ (Homo sapiens, UniProt P55055).
T3 construct: expressed in transfected cells; host or cells: HepG2
T3 sequence (P55055 222-460 limits assumed): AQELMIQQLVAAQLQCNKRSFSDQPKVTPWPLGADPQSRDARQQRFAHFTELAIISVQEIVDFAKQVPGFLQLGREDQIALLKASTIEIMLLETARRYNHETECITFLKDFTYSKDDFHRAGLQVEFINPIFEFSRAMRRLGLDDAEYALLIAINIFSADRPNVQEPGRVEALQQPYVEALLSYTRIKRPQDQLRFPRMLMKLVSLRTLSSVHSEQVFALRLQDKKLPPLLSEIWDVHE
Kind of data set: LXRβ transactivation on HepG2 cells (GAL4 LBD reporter). The class given is cell-based. The following applies: 10 μM. The method, then: as §1

The conditions of data set [4]: mouse, in vivo, po, 50 mg/kg.

For the molecule `CC[C@H]1[C@@H](O)[C@@H]2[C@H](CC[C@]3(C)[C@@H]([C@H](C)CCC(=O)O)CC[C@@H]23)[C@@]2(C)CC[C@H](N=[N+]=[N-])C[C@@H]12` [compound 2, 3β-azido-6α-ethyl-7α-hydroxy-5β-cholan-24-oic acid], a half-maximal response in data set [1] (10 nM to 25 μM, 18 h) (EC50) required 846 nM. For the same molecule, the “FXR transactivation compared with 6-ECDCA” value in data set [1] (10 μM) was “equipotent with 6-ECDCA”. In data set [2], the LXRα transactivation entry is on record as “unable in inducing”. The LXRβ transactivation result in data set [3] is listed as “unable in inducing”. In addition, in data set [4], the “liver metabolism / tauro-conjugation” value is “extensive liver metabolism”.
